Data set [1] concerns the target T1, CYP2C9 (Homo sapiens, UniProt P11712). The conditions noted are these: recombinant enzyme, pH 7.5. As for the experimental part: (§1) Supplementary Section S1. Marker reactions for CYP2C19, CYP2C9 and CYP3A4 […]
(§2) for CYP3A4 [1,2] were used to determine (i) intersystem extrapolation factors (ISEF), (ii) […]
(§3) (i) Experiments for the determination of Michaelis-Menten kinetics in HLM were performed at protein concentrations of 0.02, 0.04 and 0.05 mg/mL for the marker reactions of CYP2C19, CYP2C9 and CYP3A4 (n = 3 each), respectively. Two samples were taken from each incubation after 15 and 25 min for investigations on CYP2C19, after 5 and 10 min for CYP2C9 and after 7 and 12 min for CYP3A4, respectively. […]
were applied as substrate concentrations.
For investigations in rhCYP concentrations of 2.5 pmol/mL rhCYP2C19 (n = 3), […]
respectively. […]

The target in data set [2] is CYP2C9 in human liver microsomes (HLM) (Homo sapiens, UniProt P11712). In words: in vitro. The conditions noted are these: pH 7.5. As for the experimental part:
as §1, §2, §3
(§4) were applied as substrate concentrations. […]

The target of data set [3] is T1, CYP2C9. In words: in vitro. The conditions noted are these: microsomes, pH 7.5. As for the experimental part: as §1, §2, §3, §4
The subject of data set [4] is human liver microsomes (HLM). The conditions noted are these: mean over voriconazole 0.5, 1, 2, 3 µM.
In data set [5] the test system is CYP2C19 (loratadine), CYP2C9 (sulfaphenazole), CYP3A4 (ketoconazole). In words: in vitro. Conditions: human; for inhibition at 3 µM: pH 7.5; for activity: pH 7.5, % of Uninhibited Control (voriconazole N-oxidation velocity), HLM.
In data set [6] the test system is HLM, HIM and rhCYP. In words: Pre-investigations of metabolite formation from VRC in HLM, HIM and rhCYP. Format: in vitro ADME, human. The text has this:
As an essential prerequisite, the linearity of metabolite formation with regard to reaction time and enzyme concentration, as well as the absence of substrate depletion (<10%), were investigated.

Data set [7] deals with T2, CYP2C19 (Homo sapiens, UniProt P33261). In words: IC50 and IC50 shift on CYP2C19 marker reaction (S-mephenytoin 4-hydroxylation) in HLM. Format: in vitro ADME. Set-up: tissue Corning Inc; host or cells: pooled human liver microsomes (150 donors). As for the experimental part:
(§5) Remaining activity (A, %) was calculated as the ratio of reaction velocities in the inhibited and non-inhibited incubations. IC50 and the steepness of the inhibition curve (H) were estimated by fitting the four-parameter inhibition model to the experimental data (Equation (9)). Maximum (Amax) and baseline activity (A0) were fixed to 100 and 0, respectively. […] (9) A,%=A0+Amax−A0/1+logCInhib/logIC50^H=100/1+logCInhib/logIC50^H […]
as §1, §2
(§6) Each probe substrate was incubated in the presence of each inhibitor. […]
(§7) were performed at concentrations of 0.2, 0.08 and 0.05 mg/mL HLM for CYP2C19, CYP2C9 and CYP3A4, respectively. IC50 and IC50 shift assays were performed at substrate […]
(§8) Reaction times were identical to those described

The conditions of data set [8]: cited from earlier work.
The target in data set [9] is T1, CYP2C9. In words: IC50 and IC50 shift on CYP2C9 marker reaction (diclofenac 4-hydroxylation) in HLM. Format: in vitro ADME. The arrangement: tissue Corning Inc; host or cells: pooled human liver microsomes (150 donors). As for the experimental part: as §5
Supplementary Section S1. […]
Two samples were taken
from each incubation after 15 and 25 min for investigations on CYP2C19, after 5 and
10 min for CYP2C9 and after 7 and 12 min for CYP3A4, respectively. […]
CYP2C9 and CYP3A4, respectively. IC50 and IC50 shift assays were performed at substrate
as §8

For data set [10], the target named is T3, CYP3A4 (Homo sapiens, UniProt P08684). In words: Type of reversible inhibition and Ki on CYP3A4 (midazolam 1-hydroxylation) in HLM. Conditions: CYP3A4. Format: in vitro ADME. Set-up: tissue Corning Inc; host or cells: pooled human liver microsomes (150 donors). As for the experimental part:
(§9) Reaction velocities were investigated in function of the substrate ([S]) and inhibitor ([I]) concentration to determine KM, Vmax and Ki of the reaction. The obtained data were used to fit the three main models of reversible inhibition, i.e., competitive (Equation (10)), noncompetitive (Equation (11)) and uncompetitive (Equation (12)) using the “nls” function in R. The type of inhibition was determined according to the best model fit assessed with Akaike’s information criteria (AIC). […] (10) V=Vmax/1+KM/S1+I/Ki (11) V=Vmax/1+KM/S1+I/Ki (12) V=Vmax/1+KM/S+I/Ki […]
as §1, §2, §3, §4, §6, §7, §8

Data set [11] has as its target T3, CYP3A4. In words: IC50 and IC50 shift on CYP3A4 marker reaction (midazolam 1-hydroxylation) in HLM. Format: in vitro ADME. Set-up: tissue Corning Inc; host or cells: pooled human liver microsomes (150 donors). Conditions: for IC50 shift: human, human liver microsomes, pH 7.5, probe midazolam 1-hydroxylation (4.60 µM midazolam). As for the experimental part: as §5, §1, §2
Two samples were taken […]
from each incubation after 15 and 25 min for investigations on CYP2C19, after 5 and 10 min for CYP2C9 and after 7 and 12 min for CYP3A4, respectively. […]
CYP2C9 and CYP3A4, respectively. IC50 and IC50 shift assays were performed at substrate […]
as §8
In general terms: Liver microsomes are a subcellular fraction often used to study metabolism.

The target of data set [12] is T2, CYP2C19. In words: Type of reversible inhibition and Ki on CYP2C19 (S-mephenytoin 4-hydroxylation) in HLM. Format: in vitro ADME. The arrangement: tissue Corning Inc; host or cells: pooled human liver microsomes (150 donors). As for the experimental part:
as §9, §1, §2, §3, §4, §6, §7, §8

For data set [13], the target named is T1, CYP2C9. In words: Type of reversible inhibition and Ki on CYP2C9 (diclofenac 4-hydroxylation) in HLM. Format: in vitro ADME. Set-up: tissue Corning Inc; host or cells: pooled human liver microsomes (150 donors). As for the experimental part:
as §9, §1, §2, §3, §4, §6, §7, §8

For data set [14], the system named is human liver microsomes (HLM). In words: Metabolic stability of voriconazole N-oxide and hydroxyvoriconazole in HLM. Format: in vitro ADME. The conditions noted are these: HLM 0.2 mg/mL. As for the experimental part:
An incubation without HLM served as a control (n = 1).

Substrate in data set [15]: C[C@@H](c1ncncc1F)[C@](O)(Cn1cncn1)c1ccc(F)cc1F
In words: not read. Conditions: other: N-oxidation of voriconazole.

[16] abbreviates: 30 min pre-incubation in the absence of NADPH.
Setting [17] is: 30 min pre-incubation in the absence of NADPH, read-out: IC50 NADPH (−) (95% Confidence Interval).
Where [18] appears, read: 30 min pre-incubation in the presence of NADPH.
Setting [19] is: 30 min pre-incubation in the presence of NADPH, read-out: IC50 NADPH (+) (95% Confidence Interval).

Like-named read-outs stand apart in the source and are kept apart here. A value given as a limit tells only on which side of the number the result lay.

T3 sequence (P08684 2-503 limits assumed): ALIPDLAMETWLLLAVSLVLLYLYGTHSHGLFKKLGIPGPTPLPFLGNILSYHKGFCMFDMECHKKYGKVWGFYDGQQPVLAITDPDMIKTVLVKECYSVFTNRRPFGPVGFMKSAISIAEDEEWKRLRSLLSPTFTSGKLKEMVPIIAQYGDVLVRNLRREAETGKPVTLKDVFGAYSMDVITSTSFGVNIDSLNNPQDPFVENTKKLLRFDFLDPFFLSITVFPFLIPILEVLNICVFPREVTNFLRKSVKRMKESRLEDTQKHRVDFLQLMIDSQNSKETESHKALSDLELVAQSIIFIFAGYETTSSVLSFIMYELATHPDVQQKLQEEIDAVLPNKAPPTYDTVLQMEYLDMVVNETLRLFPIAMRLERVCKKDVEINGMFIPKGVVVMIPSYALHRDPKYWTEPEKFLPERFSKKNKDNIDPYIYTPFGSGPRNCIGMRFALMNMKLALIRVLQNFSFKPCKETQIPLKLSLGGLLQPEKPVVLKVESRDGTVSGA

By microsomal CLint is commonly meant the capacity of the preparation to metabolise the compound, expressed as a volume cleared per time. Turning to `O=C(O)Cc1ccccc1Nc1c(Cl)cccc1Cl` [Diclofenac, diclofenac], the “CLint, rhCYP” value in data set [1] was found to be 5.89 µL/min/pmol. Besides, in data set [2], the “Vmax,HLM (95% CI)” value was 1693 pmol/min/mg. The microsomal CLint in data set [3] was determined as 408 µL/min/mg.

As usually defined, the inhibition is the drop in the measured response relative to a control, in per cent. A higher inhibition goes with a response far below the control. For `CC(=O)N1CCN(c2ccc(OCC3COC(Cn4ccnc4)(c4ccc(Cl)cc4Cl)O3)cc2)CC1` (centres unmarked) [ketoconazole], the “Mean (SD) % of Uninhibited Control” value in data set [4] was 52.4 (4.26) %. In data set [5], this molecule had an inhibition at 3 µM of 47.6%. The activity in [5] (voriconazole 0.5 µM) came to 49.8%; in data set [5] (voriconazole 1 µM), 48.4%; in [5] (voriconazole 2 µM), 53.6%; in data set [5] (voriconazole 3 µM) it was 57.9%.

Usually IC50 stands for the concentration that inhibits the measured activity by half. For orientation: Ki means a measure of affinity in units of concentration, obtained from inhibition or displacement. Consider `C[C@@H](c1ncnc(O)c1F)[C@](O)(Cn1cncn1)c1ccc(F)cc1F` [OH–VRC, hydroxyvoriconazole], for which, in data set [6], the “OH–VRC formation from VRC” value is “not observed”. Moreover, the “IC50 Shift NADPH (−)” value came to 1.17 in data set [7] (setting [16]) and 1.76 in data set [11] (setting [16]). In addition, the IC50 in [7] (setting [17]) is > 34.2 µM; in [7] (setting [19]) it was 33.6 µM; in data set [7] (without pre-incubation, […] S-mephenytoin, HLM, NO and OH–VRC estimates exceed applied concentrations (max 34.2 µM), read-out: IC50 (95% Confidence Interval)) it was > 34.2 µM; in data set [9] (setting [17]), 3.68 µM; in data set [9] (setting [19]) it was 3.64 µM; in data set [9] (without pre-incubation, 4.73 µM diclofenac, HLM, read-out: IC50 (95% Confidence Interval)), 3.67 µM. Further, the IC50 in data set [11] (setting [17]) was determined as 0.579 µM; in data set [11] (setting [19]), 1.57 µM; in data set [11] (without pre-incubation, 4.60 µM midazolam, HLM, read-out: IC50 (95% Confidence Interval)) it was 1.02 µM. In data set [7] (setting [18]), the “IC50 Shift NADPH (+)” value is listed as 1.24. Moreover, the “time dependence of inhibition” value in [7] (IC50 shift assay), in data set [9] (IC50 shift assay) and in [11] (IC50 shift assay) was “Time-independent inhibition” in each case. Moreover, the “plasma concentrations, fold lower than those of NO” value in data set [8] is recorded as “up to 30 fold”. The IC50 shift in data set [9] (human, human liver microsomes, pH 7.5, probe diclofenac 4-hydroxylation (4.73 µM diclofenac), 30 min pre-incubation in the absence of NADPH) was 0.997; in data set [11] (setting [16]), > 1.5; in data set [11] (setting [18]), 0.65. In addition, in data set [9] (human, human liver microsomes, pH 7.5, probe diclofenac (4-hydroxylation), 4.73 µM, 30 min pre-incubation in the presence of NADPH), the IC50 shift at 30 min is 1.01. For the same molecule, the “Type of Reversible Inhibition” value in data set [10] (best model fit by AIC) is recorded as “noncompetitive”; in data set [12] (CYP2C19, best model fit by AIC) it was “competitive”; in data set [13] (CYP2C9, best model fit by AIC) it was “competitive”. Besides, the Ki is 2.53 µM in data set [10] (midazolam 1-hydroxylation, HLM, read-out: Ki (95% CI)); 11.6 µM in data set [12] (read-out: Ki (95% CI)); 2.8 µM in data set [13] (read-out: Ki (95% CI)). The “inhibitory effect on CYP2C19 relative to VRC (fold lower, from Ki)” value in [12] (compared to VRC) turned out to be 6.1 fold. For the same molecule, the “depletion over time when incubated directly with HLM” value in [14] (5-60 min, 0.137 and 1.10 µM) was “no depletion”. The “% compared to a control incubation without HLM after 60 min” value in data set [14] (high concentration (1.10 µM), single replicates) is 94.7%.

For `Nc1ccc(S(=O)(=O)Nc2ccnn2-c2ccccc2)cc1` [sulfaphenazole], in data set [4], the “Mean (SD) % of Uninhibited Control” value is on record as 63.8 (2.69) %. The inhibition at 3 µM in data set [5] was 36.2%. For the same molecule, the activity in [5] (voriconazole 0.5 µM) worked out at 64.8%; in data set [5] (voriconazole 1 µM) it was 60.7%; in data set [5] (voriconazole 2 µM) it was 62.6%; in data set [5] (voriconazole 3 µM), 66.9%.

B1: rhCYP2C19 (Homo sapiens) (protein)
chain: MDPFVVLVLCLSCLLLLSIWRQSSGRGKLPPGPTPLPVIGNILQIDIKDVSKSLTNLSKIYGPVFTLYFGLERMVVLHGYEVVKEALIDLGEEFSGRGHFPLAERANRGFGIVFSNGKRWKEIRRFSLMTLRNFGMGKRSIEDRVQEEARCLVEELRKTKASPCDPTFILGCAPCNVICSIIFQKRFDYKDQQFLNLMEKLNENIRIVSTPWIQICNNFPTIIDYFPGTHNKLLKNLAFMESDILEKVKEHQESMDINNPRDFIDCFLIKMEKEKQNQQSEFTIENLVITAADLLGAGTETTSTTLRYALLLLLKHPEVTAKVQEEIERVIGRNRSPCMQDRGHMPYTDAVVHEVQRYIDLIPTSLPHAVTCDVKFRNYLIPKGTTILTSLTSVLHDNKEFPNPEMFDPRHFLDEGGNFKKSNYFMPFSAGKRICVGEGLARMELFLFLTFILQNFNLKSLIDPKDLDTTPVVNGFASVPPFYQLCFIPV
With B1, the Km in data set [15] (rhCYP2C19, pH 7.5) was 1.31 (0.862–1.75) µM.

B2: rhCYP2C9 (Homo sapiens) (protein)
chain: MDSLVVLVLCLSCLLLLSLWRQSSGRGKLPPGPTPLPVIGNILQIGIKDISKSLTNLSKVYGPVFTLYFGLKPIVVLHGYEAVKEALIDLGEEFSGRGIFPLAERANRGFGIVFSNGKKWKEIRRFSLMTLRNFGMGKRSIEDRVQEEARCLVEELRKTKASPCDPTFILGCAPCNVICSIIFHKRFDYKDQQFLNLMEKLNENIKILSSPWIQICNNFSPIIDYFPGTHNKLLKNVAFMKSYILEKVKEHQESMDMNNPQDFIDCFLMKMEKEKHNQPSEFTIESLENTAVDLFGAGTETTSTTLRYALLLLLKHPEVTAKVQEEIERVIGRNRSPCMQDRSHMPYTDAVVHEVQRYIDLLPTSLPHAVTCDIKFRNYLIPKGTTILISLTSVLHDNKEFPNPEMFDPHHFLDEGGNFKKSKYFMPFSAGKRICVGEALAGMELFLFLTSILQNFNLKSLVDPKNLDTTPVVNGFASVPPFYQLCFIPV
B2: the Km in data set [15] (rhCYP2C9, pH 7.5) is listed as 4.06 (3.32–4.81) µM.

These data come from PMC8948939 (Pharmaceutics, 2022).
